Experimental data as given in ChEMBL document CHEMBL5154916, “Multiparameter Optimization of Naphthyridine Derivatives as Selective α5-GABAA Receptor Negative Allosteric Modulators” (J Med Chem, 2022).
≈ marks a conversion by molar mass, not a printed value. Calls of active or inactive are those of the source. The calls are words filed in the database; no cut-off is given here.

What was measured:
[1] = Metabolic stability in Wistar rat liver microsomes assessed as intrinsic clearance at 2.5 uM; type: ADME, Microsome; details: read-out: CLH
Rattus norvegicus [2] = assay: Pro-cognitive activity in neonatal PCP-impaired social recognition Wistar rat model assessed as time spent in recognition of new juveniles at 10 mg/kg, po administered 30 min before acquisition by social recognition test; type: functional, organism-based
[3] = Toxicity in po dosed Wistar rat assessed NOAEL by 4 days toxicology study; type: organism-based; details: in vivo, time 4 day
[4] = Plasma protein binding in human; type: ADME, cell-free; details: read-out: PPB (converted)
[5] = Clearance in Wistar rat plasma at 1 mg/kg, iv by HPLC-MS/MS analysis; type: ADME, organism-based
[6] = […] in po dosed Wister rat assessed as motor impairment by assessing NOAEL by spontaneous motor activity test; type: organism-based; details: Wistar, in vivo
[7] = Bioavailability in female dog at 10 mg/kg, po or 3 mg/kg, iv by HPLC-MS/MS analysis; type: ADME, organism-based, Canis lupus familiaris; details: in vivo
[8] = Bioavailability in male dog at 10 mg/kg, po or 3 mg/kg, iv by HPLC-MS/MS analysis; type: ADME, organism-based, Canis lupus familiaris; details: in vivo
[9] = Plasma protein binding in rat; type: ADME, cell-free; details: read-out: PPB (converted)
[10] = Half life in Wistar rat total plasma at 1 mg/kg, po by HPLC-MS/MS analysis; type: ADME, organism-based
[11] = […] in po dosed Wistar rat assessed as convulsive activity by assessing NOAEL by electroconvulsive test; type: organism-based; details: in vivo
[12] = AUC (0 to infinity) in Wistar rat total plasma at 1 mg/kg, po by HPLC-MS/MS analysis; type: ADME, organism-based; parameters: time infinity, dose 1 mg/kg, route po
[13] = Cardiovascular toxicity in po dosed dog assessed as NOAEL; type: organism-based, Canis lupus familiaris; details: in vivo
[14] = Ratio of drug level in brain to plasma in Wistar rat at 1 mg/kg, iv by HPLC-MS/MS analysis; type: ADME, organism-based; details: brain and plasma, read-out: BPR
Cytochrome P450 2C9 = Cytochrome P450 2C9 (Homo sapiens, UniProt P11712); assay: Inhibition of CYP2C9 (unknown origin); type: ADME
[15] = Thermodynamic solubility of the compound at pH 7.4; type: physicochemical; details: buffer, read-out: Therm_solubility
[16] = Ratio of drug level in brain to plasma in Wistar rat at 3 mg/kg, po measured at 1.5 hr post dose; type: ADME, organism-based; details: brain and plasma, read-out: BPR
Rattus norvegicus [17] = assay: Pro-cognitive activity in po dosed subchronic PCP-induced cognitive impairment associated schizophrenia Wistar rat model assessed as reversal of PCP-induced cognitive deficit administered 30 mins prior to T1 phase by NOR test; type: functional; details: 0.5 h, read-out: MED
[18] = Thermodynamic solubility of the compound at pH 5; type: physicochemical; details: buffer, read-out: Therm_solubility
[19] = Ratio of drug level in brain to plasma in Wistar rat at 1 mg/kg, po or 1 mg/kg, iv by HPLC-MS/MS analysis; type: ADME, organism-based; details: brain and plasma, read-out: BPR
[20] = molecular target: GABA-A receptor; alpha-1/beta-3/gamma-2 (Homo sapiens) (UniProt P14867+P18507+P28472); assay: Negative allosteric modulation activity at human recombinant alpha1beta3gamma2 GABAA receptor stably expressed in HEK293 cells assessed as modulation at alpha5 subunit by Patch clamp method; type: cell-based; details: filed as negative allosteric modulator
[21] = Bioavailability in Wistar rat total plasma at 1 mg/kg, iv by HPLC-MS/MS analysis; type: ADME, organism-based
[22] = molecular target: T1, GABA-A receptor; alpha-5/beta-3/gamma-2 (Homo sapiens, UniProt P18507+P28472+P31644); assay: Displacement of [3H]Ro151788 from human recombinant alpha5beta3gamma2 GABAA receptor stably expressed in HEK293 cell membrane assessed as inhibition constant by radioligand binding assay; type: cell membranes
T1 sequence (P18507 whole entry): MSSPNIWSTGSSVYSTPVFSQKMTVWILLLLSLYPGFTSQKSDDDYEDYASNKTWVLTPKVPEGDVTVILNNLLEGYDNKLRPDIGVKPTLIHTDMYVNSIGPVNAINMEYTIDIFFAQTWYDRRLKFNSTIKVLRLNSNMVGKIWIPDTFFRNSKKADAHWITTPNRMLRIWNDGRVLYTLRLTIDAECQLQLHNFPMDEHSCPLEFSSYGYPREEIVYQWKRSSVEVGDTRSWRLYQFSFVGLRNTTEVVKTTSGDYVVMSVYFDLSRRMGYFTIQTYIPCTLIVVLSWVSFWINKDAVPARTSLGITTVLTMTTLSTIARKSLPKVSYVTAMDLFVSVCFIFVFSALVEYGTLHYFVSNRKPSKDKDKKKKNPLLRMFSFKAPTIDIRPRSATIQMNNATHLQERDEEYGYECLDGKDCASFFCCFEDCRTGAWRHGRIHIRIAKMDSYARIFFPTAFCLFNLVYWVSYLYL
T1 sequence (P28472 whole entry): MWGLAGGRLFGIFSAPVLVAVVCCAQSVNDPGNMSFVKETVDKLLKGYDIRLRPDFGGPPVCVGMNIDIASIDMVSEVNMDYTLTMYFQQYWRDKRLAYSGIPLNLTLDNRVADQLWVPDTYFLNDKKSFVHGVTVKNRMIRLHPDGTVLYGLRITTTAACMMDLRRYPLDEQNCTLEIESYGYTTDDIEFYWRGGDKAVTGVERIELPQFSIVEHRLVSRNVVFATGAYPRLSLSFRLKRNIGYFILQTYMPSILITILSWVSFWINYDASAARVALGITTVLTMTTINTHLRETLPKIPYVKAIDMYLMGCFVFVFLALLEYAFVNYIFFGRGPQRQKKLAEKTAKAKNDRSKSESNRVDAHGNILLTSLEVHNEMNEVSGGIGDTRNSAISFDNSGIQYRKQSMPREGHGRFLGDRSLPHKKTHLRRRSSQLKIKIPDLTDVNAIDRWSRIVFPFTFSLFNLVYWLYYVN
T1 sequence (P31644 whole entry): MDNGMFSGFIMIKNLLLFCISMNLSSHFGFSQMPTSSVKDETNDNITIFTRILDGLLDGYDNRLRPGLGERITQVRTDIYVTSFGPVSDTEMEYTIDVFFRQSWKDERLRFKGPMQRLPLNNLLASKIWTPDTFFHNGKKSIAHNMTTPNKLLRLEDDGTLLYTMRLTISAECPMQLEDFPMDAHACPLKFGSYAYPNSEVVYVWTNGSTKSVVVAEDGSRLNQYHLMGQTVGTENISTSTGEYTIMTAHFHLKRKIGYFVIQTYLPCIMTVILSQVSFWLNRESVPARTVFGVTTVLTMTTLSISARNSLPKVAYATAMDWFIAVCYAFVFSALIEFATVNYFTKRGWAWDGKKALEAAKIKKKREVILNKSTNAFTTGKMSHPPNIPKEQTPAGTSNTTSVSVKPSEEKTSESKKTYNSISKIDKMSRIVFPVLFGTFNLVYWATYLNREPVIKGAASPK

[23] = Plasma protein binding in guinea pig; type: ADME, cell-free, Cavia porcellus; details: read-out: PPB (converted)
[24] = […] in po dosed PTZ-induced seizure mouse model assessed as NOAEL by seizure test; type: organism-based; details: in vivo
[25] = Cardiovascular toxicity in po dosed guinea pig assessed as NOAEL; type: organism-based, Cavia porcellus; details: in vivo
[26] = Thermodynamic solubility of the compound at pH 6.5; type: physicochemical; details: buffer, read-out: Therm_solubility
[27] = Tmax in Wistar rat total plasma at 1 mg/kg, po by HPLC-MS/MS analysis; type: ADME, organism-based

Cytochrome P450 2C9, sequence (P11712 whole entry): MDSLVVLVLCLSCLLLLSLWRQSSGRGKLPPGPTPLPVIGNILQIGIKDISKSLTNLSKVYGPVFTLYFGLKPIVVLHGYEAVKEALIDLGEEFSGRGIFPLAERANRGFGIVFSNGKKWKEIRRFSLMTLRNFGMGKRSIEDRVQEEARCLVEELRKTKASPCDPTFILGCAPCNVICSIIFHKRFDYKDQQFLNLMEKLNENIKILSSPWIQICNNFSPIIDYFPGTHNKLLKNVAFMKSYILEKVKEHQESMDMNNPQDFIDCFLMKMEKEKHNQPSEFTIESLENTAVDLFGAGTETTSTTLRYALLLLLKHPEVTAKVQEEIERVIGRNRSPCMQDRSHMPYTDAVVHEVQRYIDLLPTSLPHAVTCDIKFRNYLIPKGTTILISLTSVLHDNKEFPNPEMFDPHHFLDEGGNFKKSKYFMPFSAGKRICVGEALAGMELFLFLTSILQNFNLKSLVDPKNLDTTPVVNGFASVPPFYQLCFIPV

Cc1onc(-c2ccc(F)cc2)c1COc1ccc2c(n1)CCN(C(=O)CS(C)(=O)=O)C2
microsomal CLint at 2.5 µM [1]: 29 µL/min/mg
Activity (Rattus norvegicus [2]): Active
NOAEL at 96 h [3]: ≥ 500 mg/kg
fraction unbound [4]: 0.014
clearance [5]: 41.3 mL/min/kg
NOAEL [6]: ≥ 100 mg/kg
bioavailability [7]: 6.7%
bioavailability [8]: 12.6%
fraction unbound [9]: 0.04
half-life [10]: 70.2 min
NOAEL [11]: ≥ 1000 mg/kg
AUC(0-inf) [12]: 146 ng·h/mL
NOAEL [13]: ≥ 70 mg/kg
Kp [14]: 0.54
IC50 (Cytochrome P450 2C9): > 50000 nM
solubility thermodynamic [15]: 0.081 µM (≈ 0.0372 µg/mL)
Kp at 1.5 h [16]: 6.3
minimal effective dose (Rattus norvegicus [17]): 3 mg/kg
solubility thermodynamic [18]: 142 µM (≈ 65.2 µg/mL)
Kp [19]: 0.54
Activity [20]: -41%
bioavailability [21]: 35.8%
Ki [22]: 4.1 nM
fraction unbound [23]: 0.023
NOAEL [24]: ≥ 30 mg/kg
NOAEL [25]: ≥ 100 mg/kg
solubility thermodynamic [26]: 9.8 µM (≈ 4.5 µg/mL)
Tmax [27]: 30 min
